# Assay results taken from US20060287247A1, “Halogen-substituted thienyl compounds” (priority 2001, published 2006).
# Tests used:
# [1] = test system: B. cereus ATCC 11778; test: NCCLS broth microdilution MIC; assay type: cell-based, Bacillus cereus; settings: C = B. cereus ATCC 11778
# [2] = test system: C. albicans ATCC 38247; test: NCCLS broth microdilution MIC (antifungal); assay type: cell-based; settings: E = C. albicans ATCC 38247
# [3] = test system: 5′-AAAAAGCAAAAA-3′; assay type: binding; settings: DNA sequence 5′-AAAAAGCAAAAA-3′; pH 7.0, 22° C.
# Procedure: (§1) A number of compounds according to this invention were screened for their ability to bind to three DNA sites, using DNase I footprinting. Generally, the procedure described in Dervan, WO 98/50582 (1998), was followed.
# (§2) A plasmid was prepared by hybridizing two sets of 5′-phosphorylated complementary oligonucleotides, one set being
# (§3) The target sites and their complements are identified in bold underline.
# (§4) The resulting duplexes were ligated to the large pUC19 AvaI/SalI restriction fragment. The 3′-P32 end-labeled EcoRI/PvuII fragment was prepared by digesting the plasmid with EcoRI and PvuII with simultaneous fill-in using Sequenase v. 2.0, [alpha-P32]-deoxyadenosine-5′-triphosphate, and [alpha-P32]-thymidine-5′-triphosphate, and isolating the cloned fragment by nondenaturing gel electrophoresis. Standard methods were used for all DNA manipulations, including A and G sequencing. See, e.g., Maxam et al., Methods Enzymol., 1980, 65, 499-560; Iverson et al., Methods Enzymol., 1987, 15, 7823-7830; and Sambrook et al., 1989, Molecular Cloning, 2nd ed., Cold Spring Harbor Laboratory Press: Cold Spring Harbor, N.Y.
# (§5) Quantitative DNase I footprint titration experiments were carried out as described previously (Dervan, WO 98/50582, 1998, “Dervan '582”) with the following changes. All reactions were carried out in a total volume of 400 μL, with polyamide stock solution or water added to 15,000 cpm radiolabeled restriction fragment affording final solution conditions of 10 mM Tris.HCl, 10 mM KCl, 10 mM MgCl2, 5 mM CaCl2, pH 7.0 and 0.01 nM, 0.1 nM, 1.0 nM, 10.0 nM polyamide or no polyamide for reference lanes. The polyamides were allowed to equilibrate at 22° C. for 16 hr. Footprinting reactions were initiated with addition of 10 μL of a DNase I stock solution (at the appropriate concentration to give ˜50% intact DNA) containing 1 mM DTT and allowed to proceed for 7 min at 22° C. The reactions were stopped, ethanol precipitated, resuspended in loading buffer, heat denatured, and placed on ice as described in Dervan '582. The reaction products were separated on a precast 8% polyacrylamide denaturing sequencing Castaway gel with 32 preformed wells from Stratagene in 1× TBE at 2000 V. Gels were dried according to the manufacturer's instructions and exposed to a storage phosphor screen (Molecular Dynamics). Quantitation and data analysis were carried out as described in Dervan '582.
# [4] = test system: 5′-AAAAAGACAAAAA-3′; assay type: binding; settings: DNA sequence 5′-AAAAAGACAAAAA-3′; pH 7.0, 22° C.
# Procedure: as §1, §2, §3, §4, §5
# [5] = test system: 5′-AAAAAGTACAAAAA-3′; assay type: binding; settings: DNA sequence 5′-AAAAAGTACAAAAA-3′; pH 7.0, 22° C.
# Procedure: as §1, §2, §3, §4, §5
# [6] = test system: E. coli ATCC 25922; test: NCCLS broth microdilution MIC; assay type: cell-based; settings: D = E. coli ATCC 25922
# [7] = test system: S. pneumoniae ATCC 49619; test: NCCLS broth microdilution MIC; assay type: cell-based, Streptococcus pneumoniae; settings: F = S. pneumoniae ATCC 49619
# [8] = test system: E. faecalis ATCC 29212; test: NCCLS broth microdilution MIC; assay type: cell-based, Enterococcus faecalis; settings: B = E. faecalis ATCC 29212
# [9] = test system: S. aureus ATCC 29213; test: NCCLS broth microdilution MIC; assay type: cell-based, Staphylococcus aureus; settings: A = S. aureus ATCC 29213
SMILES,Minimum Inhibitory Concentration (MIC) [1],Minimum Inhibitory Concentration (MIC) [2] [µg/mL],Equilibrium Association Constant (Ka) [3] [M⁻¹],Equilibrium Association Constant (Ka) [4] [M⁻¹],Equilibrium Association Constant (Ka) [5],Minimum Inhibitory Concentration (MIC) [6] [µg/mL],Minimum Inhibitory Concentration (MIC) [7],Minimum Inhibitory Concentration (MIC) [8],Minimum Inhibitory Concentration (MIC) [9]
Cn1cc(NC(=O)c2cc(NC(=O)CCNC(=O)c3cc(NC(=O)c4cc(NC(=O)c5cc(Br)c(Br)s5)cn4C)cn3C)cn2C)cc1C(=O)NCCC(=O)NCCCCCCN [Id-2],+++ (+++ = MIC ≦4),>32,5e+08,5e+08,5e+09 M⁻¹,>32,+++ (+++ = MIC ≦4),+++ (+++ = MIC ≦4),+++ (+++ = MIC ≦4)
CN(C)CC(C)(C)CNC(=O)CCNC(=O)c1cc(NC(=O)c2cc(NC(=O)CCNC(=O)c3cc(NC(=O)c4cc(NC(=O)c5cc(Br)c(Br)s5)cn4C)cn3C)cn2C)cn1C [Id-7],+++ (+++ = MIC ≦4),>32,5e+08,5e+08,≧1 × 10^11 M^−1,>32,+++ (+++ = MIC ≦4),+++ (+++ = MIC ≦4),+++ (+++ = MIC ≦4)
CN1CCCN(C(=O)CCNC(=O)c2cc(NC(=O)c3cc(NC(=O)CCNC(=O)c4cc(NC(=O)c5cc(NC(=O)c6ccc(Br)s6)cn5C)cn4C)cn3C)cn2C)CC1 [Id-16],>32 µg/mL,>32,5e+10,5e+10,≧1 × 10^11 M^−1,>32,+++ (+++ = MIC ≦4),>32 µg/mL,>32 µg/mL
CC(C)N(CCNC(=O)CCNC(=O)c1cc(NC(=O)c2cc(NC(=O)CCNC(=O)c3cc(NC(=O)c4cc(NC(=O)c5cc(Br)c(Br)s5)cn4C)cn3C)cn2C)cn1C)C(C)C [Id-3],+++ (+++ = MIC ≦4),>32,5e+08,5e+08,5e+09 M⁻¹,>32,+++ (+++ = MIC ≦4),+++ (+++ = MIC ≦4),+++ (+++ = MIC ≦4)
CCN(CC)CCNC(=O)CCNC(=O)c1cc(NC(=O)c2cc(NC(=O)CCNC(=O)c3cc(NC(=O)c4cc(NC(=O)c5ccc(Br)s5)cn4C)cn3C)cn2C)cn1C [Id-22],+++ (+++ = MIC ≦4),>32,2e+08,2e+08,≧1 × 10^11 M^−1,>32,+++ (+++ = MIC ≦4),+++ (+++ = MIC ≦4),>32 µg/mL
